What was measured:
Format in all cases: physicochemical
[1] = Storage stability of free base, di-sulphate salt and its aqueous solutions (background); conditions: for stability of aqueous solution: glass vials, no preservative
[2] = Water solubility of di-sulphate salt (background)
[3] = Polymorphic form stability of di-sulphate salt upon drying at 50° C.
[4] = Dynamic vapour sorption (DVS)
Procedure: Approximately 10-20 mg of sample was placed into a mesh vapour sorption balance pan and loaded into an Intrinsic dynamic vapour sorption balance by Surface Measurement Systems. The sample was subjected to a ramping profile from 40-90% relative humidity (RH) at 10% increments, maintaining the sample at each step until a stable weight had been achieved (dm/dt 0.004%, minimum step length 30 minutes, maximum step length 500 minutes) at 25° C. After completion of the sorption cycle, the sample was dried using the same procedure to 0% RH and then a second sorption cycle back to 40% RH. Two cycles were performed. The weight change during the sorption/desorption cycles were plotted, allowing for the hygroscopic nature of the sample to be determined. XRPD analysis was then carried out on any solid retained.

[5] = 7-day stability tests of the salt (XRPD, HPLC purity); conditions: 50° C., 80° C. and ambient light
Procedure: 7-day stability tests were carried out as follows: 15 mg of salt was weighed into x3 2 mL vials. The vials were then placed at 40° C./75% RH, 80° C. and under ambient light; after 1 week, the solids were analysed by XRPD and HPLC purity (method A).

[6] = Solubility assessment in unbuffered water and pH buffers; conditions: thermodynamic from solid
Procedure: 100 μL of the appropriate buffer was added to form a slurry.

Question: With `CC(C)CN(CCCN1CCN(CCCNc2nc3ccccc3[nH]2)CC1)CC(C)C.O=S(=O)(O)O.O=S(=O)(O)O` [di-sulphate salt, N-(3-(4-(3-(diisobutylamino)propyl)piperazin-1-yl)propyl)-1H-benzo[d]imidazol-2-amine di-sulphate] as the compound, how does the “stability of aqueous solution” value ([1]; 5° C.) read?
Answer: up to 18 months

Question: And the “stability to regular storage conditions” value ([1]; 15-25° C.)?
Answer: at least 5 years

Question: And the “stability of aqueous solution” value ([1]; 25° C./60% RH)?
Answer: up to 18 months

Question: And the “stability of aqueous solution” value ([1]; 40° C./75% RH)?
Answer: up to 6 months

Question: What about the solubility [2] of the same compound?
Answer: > 100 mg/mL

Question: With `CC(C)CN(CCCN1CCN(CCCNc2nc3ccccc3[nH]2)CC1)CC(C)C.O=S(=O)(O)O.O=S(=O)(O)O` [Form A, N-(3-(4-(3-(diisobutylamino)propyl)piperazin-1-yl)propyl)-1H-benzo[d]imidazol-2-amine di-sulphate salt] as the compound, how does the “crystalline form stability upon drying” value ([3]; di-sulphate salt) read?
Answer: converts back to polymorphic Form B

Question: For `CC(C)CN(CCCN1CCN(CCCNc2nc3ccccc3[nH]2)CC1)CC(C)C.O=S(=O)(O)O.O=S(=O)(O)O` [Form B, N-(3-(4-(3-(diisobutylamino)propyl)piperazin-1-yl)propyl)-1H-benzo[d]imidazol-2-amine di-sulphate], which “crystalline form stability upon drying” value ([3]; di-sulphate) is on record?
Answer: partially loses its crystallinity

Question: For `CC(C)CN(CCCN1CCN(CCCNc2nc3ccccc3[nH]2)CC1)CC(C)C.O=C(O)CCC(=O)O.O=C(O)CCC(=O)O.O=C(O)CCC(=O)O` [tris-succinate salt Form 2, N-(3-(4-(3-(diisobutylamino)propyl)piperazin-1-yl)propyl)-1H-benzo[d]imidazol-2-amine tris-succinate salt], which “Post-DVS XRPD crystalline form” value ([4]; after DVS cycle) is on record?
Answer: remain as tris-succinate salt Form 2

Question: And the DVS weight uptake ([4]; at 70% RH, 25° C.)?
Answer: ca. +0.1 wt. %

Question: What about the “DVS water uptake in equivalents” value ([4]; up to 90% RH) of the same compound?
Answer: approximately 4.3 equiv. water

Question: What about the DVS weight increase ([4]; up to 90% RH, 25° C.) of the same compound?
Answer: ca. +9.92 wt. %

Question: What about the hygroscopicity ([4]; up to 90% relative humidity) of the same compound?
Answer: not hygroscopic

Question: And the 7-day stability [5]?
Answer: stable

Question: And the solubility ([6]; pH 1.2, simulated gastric fluid)?
Answer: > 123 mg/mL

Question: And the solubility ([6]; pH 4.5, aqueous buffer)?
Answer: > 92.4 mg/mL

Question: What about the solubility ([6]; pH 6.8, aqueous buffer) of the same compound?
Answer: > 95.7 mg/mL

Question: With `CC(C)CN(CCCN1CCN(CCCNc2nc3ccccc3[nH]2)CC1)CC(C)C` [free base, N-(3-(4-(3-(diisobutylamino)propyl)piperazin-1-yl)propyl)-1H-benzo[d]imidazol-2-amine] as the compound, how does the long term stability [1] read?
Answer: long term stability issues due to oxidative degradation

Source: patent US20230391729A1, “SUCCINATE SALTS OF N-(3-(4-(3-(DIISOBUTYLAMINO)PROPYL)PIPERAZIN-1-YL)PROPYL)-1H-BENZO[D]IMIDAZOL-2-AMINE, PREPARATION THEREOF AND USE OF THE SAME” (ALZPROTECT, priority 2020, published 2023)
